Experimental findings from ChEMBL document CHEMBL1137075, “General model for estimation of the inhibition of protein kinases using Monte Carlo simulations” (J Med Chem, 2004) are described below.

The structures appear in SMILES notation.

Sequence of Tyrosine-protein kinase Lck (P06239 whole entry): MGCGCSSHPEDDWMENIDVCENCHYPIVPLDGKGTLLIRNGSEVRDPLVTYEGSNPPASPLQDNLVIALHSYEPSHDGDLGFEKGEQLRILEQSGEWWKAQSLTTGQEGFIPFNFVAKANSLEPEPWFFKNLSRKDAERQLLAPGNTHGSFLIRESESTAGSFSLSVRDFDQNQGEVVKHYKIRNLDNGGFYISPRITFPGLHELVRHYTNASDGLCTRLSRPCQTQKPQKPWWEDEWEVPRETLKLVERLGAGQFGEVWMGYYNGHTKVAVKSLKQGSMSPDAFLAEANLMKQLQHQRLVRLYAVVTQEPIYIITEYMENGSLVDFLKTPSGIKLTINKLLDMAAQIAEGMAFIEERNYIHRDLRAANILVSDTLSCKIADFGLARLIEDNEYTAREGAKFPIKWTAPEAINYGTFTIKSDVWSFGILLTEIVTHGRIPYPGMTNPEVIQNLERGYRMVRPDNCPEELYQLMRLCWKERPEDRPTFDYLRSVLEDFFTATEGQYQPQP

One experiment addresses Cyclin-dependent kinase 2 (Homo sapiens, UniProt P24941). Put plainly: Evaluated for inhibition of human cyclin dependent kinase 2 (CDK2).
Consider `Oc1[nH]c2ccc(Br)cc2c1/N=N/c1ccccc1`, for which inhibition was half-maximal at 43 nM (IC50). In other words, the double-digit nanomolar range.
Still for that read-out and setting: as for `COc1ccc2[nH]c(O)c(/N=N/c3ccccc3)c2c1`, the figure is 60 nM.
For `Oc1[nH]c2ccccc2c1/N=N/c1ccccc1`, inhibition was half-maximal at 46 nM (IC50).

A further experiment has as its target Tyrosine-protein kinase Lck (Homo sapiens, UniProt P06239).
Description: Evaluated for inhibition of human p56 Lck tyrosine kinase
For `CCCc1nc2ccccc2n2cncc12`, the IC50 (as a rule, the concentration at which inhibition is half-maximal) was 2680 nM.
Take `c1ccc2c(c1)nc(C1CC1)c1cncn12`: the IC50 stood at 3170 nM.
Take `COc1cc2nc(Nc3c(C)cccc3Cl)c3cnc(CO)n3c2cc1OC`: inhibition was half-maximal at 6.2 nM (IC50).
As to `c1ccc2c(c1)nc(C1CCCCC1)c1cncn12`, half-maximal inhibition (IC50) required 3170 nM.
Same read-out and setting: to `c1cncc(-c2nc3ccccc3n3cncc23)c1` belongs 820 nM; to `COc1cc2nc(Nc3c(C)cccc3Cl)c3cnc(C=O)n3c2cc1OC`, 10 nM.
